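Dose response: 5 concentrations. Exposure: 48 h. Format: 96-well plates. Endpoint: linear interpolation; highest concentration if not reached. Here, GI50 denotes the concentration required for 50% inhibition of growth. The concentration for full growth arrest is given as TGI.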
Assays:
Experiment in all cases: inhibition of tumour cell growth, NCI panel, 48 h
786-0 renal = system: 786-0 renal
A498 renal = system: A498 renal
HL-60(TB) leukemia = system: HL-60(TB) leukemia
HOP-62 NSCLC = system: HOP-62 NSCLC
MCF7 breast = system: MCF7 breast
MDA-MB-435 = system: MDA-MB-435
NCI-H460 lung = system: NCI-H460 lung
NCI/ADR-RES ovarian = system: NCI/ADR-RES ovarian
SK-MEL-2 melanoma = system: SK-MEL-2 melanoma
SK-MEL-28 melanoma = system: SK-MEL-28 melanoma

SMILES: Cc1ccc(-c2nc(NCCOCCOCCN)nc(N3CCN(c4ccccn4)CC3)n2)cc1
- GI50 (786-0 renal): 12.4 µM
- TGI (786-0 renal): 26.8 µM
- GI50 (A498 renal): 5.94 µM
- TGI (A498 renal): 21.7 µM
- GI50 (HL-60(TB) leukemia): 18.7 µM
- TGI (HL-60(TB) leukemia): 40.5 µM
- GI50 (HOP-62 NSCLC): 16.7 µM
- TGI (HOP-62 NSCLC): 31.4 µM
- GI50 (MCF7 breast): 12.7 µM
- TGI (MCF7 breast): 26.9 µM
- GI50 (MDA-MB-435): 10.5 µM
- TGI (MDA-MB-435): 30.2 µM
- GI50 (NCI-H460 lung): 13.9 µM
- TGI (NCI-H460 lung): 29.9 µM
- GI50 (NCI/ADR-RES ovarian): 15.3 µM
- TGI (NCI/ADR-RES ovarian): 31.1 µM
- GI50 (SK-MEL-2 melanoma): 18 µM
- TGI (SK-MEL-2 melanoma): 35.9 µM
- GI50 (SK-MEL-28 melanoma): 6.04 µM
- TGI (SK-MEL-28 melanoma): 12.4 µM

SMILES: CCn1c(-c2nonc2N)nc2ccccc21
- GI50 (786-0 renal): > 25 µM
- TGI (786-0 renal): > 25 µM
- GI50 (A498 renal): > 25 µM
- TGI (A498 renal): > 25 µM
- GI50 (HL-60(TB) leukemia): > 25 µM
- TGI (HL-60(TB) leukemia): > 25 µM
- GI50 (HOP-62 NSCLC): > 25 µM
- TGI (HOP-62 NSCLC): > 25 µM
- GI50 (MCF7 breast): > 25 µM
- TGI (MCF7 breast): > 25 µM
- GI50 (MDA-MB-435): > 25 µM
- TGI (MDA-MB-435): > 25 µM
- GI50 (NCI-H460 lung): > 25 µM
- TGI (NCI-H460 lung): > 25 µM
- GI50 (NCI/ADR-RES ovarian): > 25 µM
- TGI (NCI/ADR-RES ovarian): > 25 µM
- GI50 (SK-MEL-2 melanoma): > 25 µM
- TGI (SK-MEL-2 melanoma): > 25 µM
- GI50 (SK-MEL-28 melanoma): > 25 µM
- TGI (SK-MEL-28 melanoma): > 25 µM

SMILES: Clc1ccc2c(NCCNc3nc(N4CCOCC4)nc4ccccc34)ccnc2c1
- GI50 (786-0 renal): 1.79 µM
- TGI (786-0 renal): 4.95 µM
- GI50 (A498 renal): 1.87 µM
- TGI (A498 renal): 4.62 µM
- GI50 (HL-60(TB) leukemia): 1.09 µM
- TGI (HL-60(TB) leukemia): 3.12 µM
- GI50 (HOP-62 NSCLC): 2.25 µM
- TGI (HOP-62 NSCLC): 5.98 µM
- GI50 (MCF7 breast): 3.82 µM
- TGI (MCF7 breast): 17.2 µM
- GI50 (MDA-MB-435): 2.34 µM
- TGI (MDA-MB-435): 5.88 µM
- GI50 (NCI-H460 lung): 2.03 µM
- TGI (NCI-H460 lung): 4.16 µM
- GI50 (NCI/ADR-RES ovarian): 3.73 µM
- TGI (NCI/ADR-RES ovarian): 15.5 µM
- GI50 (SK-MEL-2 melanoma): 1.95 µM
- TGI (SK-MEL-2 melanoma): 3.72 µM
- GI50 (SK-MEL-28 melanoma): 2.1 µM
- TGI (SK-MEL-28 melanoma): 4.12 µM

SMILES: Nc1ncn([C@H]2CC(O)[C@@H](CO)S2)c(=O)n1 (stereo not given in full)
- GI50 (786-0 renal): 13.9 µM
- TGI (786-0 renal): > 100 µM
- GI50 (A498 renal): 1.99 µM
- TGI (A498 renal): 58.1 µM
- GI50 (HL-60(TB) leukemia): 5.27 µM
- TGI (HL-60(TB) leukemia): > 100 µM
- GI50 (HOP-62 NSCLC): 4.63 µM
- TGI (HOP-62 NSCLC): > 100 µM
- GI50 (MCF7 breast): 0.382 µM
- TGI (MCF7 breast): > 100 µM
- GI50 (MDA-MB-435): 0.783 µM
- TGI (MDA-MB-435): > 100 µM
- GI50 (NCI-H460 lung): 0.685 µM
- TGI (NCI-H460 lung): > 100 µM
- GI50 (NCI/ADR-RES ovarian): 0.559 µM
- TGI (NCI/ADR-RES ovarian): > 100 µM
- GI50 (SK-MEL-2 melanoma): 7.05 µM
- TGI (SK-MEL-2 melanoma): > 100 µM
- GI50 (SK-MEL-28 melanoma): 2.05 µM
- TGI (SK-MEL-28 melanoma): > 100 µM

SMILES: S=c1ssnc1-c1cc2ccccc2o1
- GI50 (786-0 renal): 16.5 µM
- TGI (786-0 renal): 34.8 µM
- GI50 (A498 renal): 20 µM
- TGI (A498 renal): 38.8 µM
- GI50 (HL-60(TB) leukemia): 14 µM
- TGI (HL-60(TB) leukemia): > 100 µM
- GI50 (HOP-62 NSCLC): 17.3 µM
- TGI (HOP-62 NSCLC): 37.6 µM
- GI50 (MCF7 breast): 9.55 µM
- TGI (MCF7 breast): 32.1 µM
- GI50 (MDA-MB-435): 11.6 µM
- TGI (MDA-MB-435): 32 µM
- GI50 (NCI-H460 lung): 11 µM
- TGI (NCI-H460 lung): 29.5 µM
- GI50 (NCI/ADR-RES ovarian): 25.7 µM
- TGI (NCI/ADR-RES ovarian): 90.7 µM
- GI50 (SK-MEL-2 melanoma): 13.8 µM
- TGI (SK-MEL-2 melanoma): 28.3 µM
- GI50 (SK-MEL-28 melanoma): 15.1 µM
- TGI (SK-MEL-28 melanoma): 30 µM

SMILES: Cc1nc2c(C)ccc([N+](=O)[O-])c2c(NCCCN(C)C)c1C
- TGI (786-0 renal): > 100 µM
- TGI (A498 renal): > 49.6 µM
- TGI (HL-60(TB) leukemia): > 68.3 µM
- TGI (HOP-62 NSCLC): > 66.6 µM
- TGI (MCF7 breast): > 100 µM
- TGI (MDA-MB-435): > 100 µM
- TGI (NCI-H460 lung): > 100 µM
- TGI (NCI/ADR-RES ovarian): > 100 µM
- TGI (SK-MEL-2 melanoma): > 70.6 µM
- TGI (SK-MEL-28 melanoma): > 54.8 µM

SMILES: CC(C)=C[C@@H]1C[C@H](C)[C@H]2CC[C@H](C)c3c(O)c(OC4OC(C)C(O)C(O)C4O)c(C)c1c32 (stereo not given in full)
- GI50 (786-0 renal): 17.8 µM
- TGI (786-0 renal): 33 µM
- GI50 (A498 renal): 12.7 µM
- TGI (A498 renal): 26.7 µM
- GI50 (HL-60(TB) leukemia): 10.4 µM
- TGI (HL-60(TB) leukemia): 25.7 µM
- GI50 (HOP-62 NSCLC): 19.2 µM
- TGI (HOP-62 NSCLC): 34.7 µM
- GI50 (MCF7 breast): 13.9 µM
- TGI (MCF7 breast): 27.7 µM
- GI50 (MDA-MB-435): 13.6 µM
- TGI (MDA-MB-435): 27.2 µM
- GI50 (NCI-H460 lung): 7.83 µM
- TGI (NCI-H460 lung): 21.2 µM
- GI50 (NCI/ADR-RES ovarian): 0.648 µM
- TGI (NCI/ADR-RES ovarian): 16.8 µM
- GI50 (SK-MEL-2 melanoma): 19.8 µM
- TGI (SK-MEL-2 melanoma): 35.5 µM
- GI50 (SK-MEL-28 melanoma): 18.1 µM
- TGI (SK-MEL-28 melanoma): 32.1 µM

SMILES: COc1cc(-c2nc(-c3ccccc3)c(-c3ccccc3)[nH]2)cc(OC)c1O
- GI50 (786-0 renal): 19.9 µM
- TGI (786-0 renal): 44 µM
- GI50 (A498 renal): 0.0762 µM
- TGI (A498 renal): 24.7 µM
- GI50 (HL-60(TB) leukemia): 31.5 µM
- TGI (HL-60(TB) leukemia): > 100 µM
- GI50 (HOP-62 NSCLC): 21.9 µM
- TGI (HOP-62 NSCLC): 47.8 µM
- GI50 (MCF7 breast): 13.2 µM
- TGI (MCF7 breast): 43.4 µM
- GI50 (MDA-MB-435): 14.5 µM
- TGI (MDA-MB-435): 28.4 µM
- GI50 (NCI-H460 lung): 17.3 µM
- TGI (NCI-H460 lung): 36.3 µM
- GI50 (NCI/ADR-RES ovarian): 24.6 µM
- TGI (NCI/ADR-RES ovarian): 73.8 µM
- GI50 (SK-MEL-2 melanoma): 19.8 µM
- TGI (SK-MEL-2 melanoma): 35.5 µM
- GI50 (SK-MEL-28 melanoma): 14.9 µM
- TGI (SK-MEL-28 melanoma): 31.1 µM

Source: PubChem BioAssay (NCI)
